Measurements published in patent US9227971B2, “Pyrazolo[1,5-a]pyrimidine compounds as mTOR inhibitors” (Merck Sharp & Dohme Corp., priority 2010, dated 2016).
Read-outs that look alike come from different tables or passages of the source.

What was measured:
[1] = system: phosphorylated AKT Ser473 (pAKT S473), mTORC2 activity, PC3 cells; test: mTOR target engagement assay, immunofluorescent cell-based, pAKT S473 readout (mTORC2 activity); conditions: Homo sapiens
Summary of the method: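 After blocking, cells were stained overnight at 4 °C with anti-pAKT S473 antibody, then a fluorescent secondary; inhibition was read as reduced fluorescence intensity.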

[2] = system: phosphorylated 4E-BP1 Thr37/46 (p4E-BP1 Thr37/46), mTORC1 activity, PC3 cells; test: mTOR target engagement assay, immunofluorescent cell-based, p4E-BP1 Thr37/46 readout (mTORC1 activity); conditions: Homo sapiens, read-out: p4E-BP1 Thr37/46 IC50
Summary of the method: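 Cell-based immunofluorescence in PC3 cells: serially diluted compounds (0.25% DMSO, 5% FBS) applied for ninety minutes at 37° C before fixation and overnight 4° C staining of p4E-BP1 Thr37/46. Untreated DMSO wells set maximal phosphorylation; IC50 obtained by logistic fitting.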

[3] = PC-3, PC3 cells, compound treatment ninety minutes at 37° C.

| SMILES | IC50 [1, 3] | IC50 [2, 3] | IC50 ([1]; PC-3, Table 3-1, PC3 cells) | IC50 ([2]; PC-3, Table 3-1, PC3 cells) |
| --- | --- | --- | --- | --- |
| COc1ccc(-c2ccc(-c3cnn4c(N)cc([C@@H]5C[C@H]6CC[C@@H](C5)N6C(=O)c5nnc[nH]5)nc34)cn2)cc1F [Compound 2.5, ((1R,3s,5S)-3-(7-amino-3-(6-(3-fluoro-4-methoxyphenyl)pyridin-3-yl)pyrazolo[1,5-a]pyrimidin-5-yl)-8-azabicyclo[3.2.1]octan-8-yl)(4H-1,2,4-triazol-3-yl)methanone] | 100 to 1000 nM | 1000 to 10000 nM | – | – |
| COc1ccc(-c2ccc(-c3cnn4c(N)cc([C@@H]5C[C@H]6CC[C@@H](C5)N6C(=O)c5nnc[nH]5)nc34)cn2)cc1CO [Compound 2.6, ((1R,3s,5S)-3-(7-amino-3-(6-(3-(hydroxymethyl)-4-methoxyphenyl)pyridin-3-yl)pyrazolo[1,5-a]pyrimidin-5-yl)-8-azabicyclo[3.2.1]octan-8-yl)(4H-1,2,4-triazol-3-yl)methanone] | 100 to 1000 nM | 100 to 1000 nM | – | – |
| COc1ccc(-c2ccc(-c3cnn4c(N)cc([C@@H]5C[C@H]6CC[C@@H](C5)N6C(=O)CO)nc34)cn2)cc1CO [Compound 2.7, 1-((1R,3s,5S)-3-(7-amino-3-(6-(3-(hydroxymethyl)-4-methoxyphenyl)pyridin-3-yl)pyrazolo[1,5-a]pyrimidin-5-yl)-8-azabicyclo[3.2.1]octan-8-yl)-2-hydroxyethanone] | 100 to 1000 nM | 100 to 1000 nM | – | – |
| Nc1cc([C@@H]2C[C@H]3CC[C@@H](C2)N3C(=O)CO)nc2c(-c3ccc(-c4ccccc4)nc3)cnn12 [Compound 2.8, 1-((1R,3s,5S)-3-(7-amino-3-(6-phenylpyridin-3-yl)pyrazolo[1,5-a]pyrimidin-5-yl)-8-azabicyclo[3.2.1]octan-8-yl)-2-hydroxyethanone] | 100 to 1000 nM | 1000 to 10000 nM | – | – |
| Cn1cnc(-c2ccc(-c3cnn4c(N)cc([C@@H]5C[C@H]6CC[C@@H](C5)N6C(=O)c5nnc[nH]5)nc34)cn2)n1 [Compound 2.10, ((1R,3s,5S)-3-(7-amino-3-(6-(1-methyl-1H-1,2,4-triazol-3-yl)pyridin-3-yl)pyrazolo[1,5-a]pyrimidin-5-yl)-8-azabicyclo[3.2.1]octan-8-yl)(4H-1,2,4-triazol-3-yl)methanone] | > 10000 nM | > 10000 nM | – | – |
| Nc1cc([C@@H]2C[C@H]3CC[C@@H](C2)N3C(=O)c2nnc[nH]2)nc2c(-c3ccc4[nH]ncc4c3)cnn12 [Compound 2.12, ((1R,3s,5S)-3-(7-amino-3-(1H-indazol-5-yl)pyrazolo[1,5-a]pyrimidin-5-yl)-8-azabicyclo[3.2.1]octan-8-yl)(1H-1,2,4-triazol-5-yl)methanone] | > 10000 nM | > 10000 nM | – | – |
| Nc1cc([C@@H]2C[C@H]3CC[C@@H](C2)N3C(=O)c2nnc[nH]2)nc2c(-c3cnc4[nH]ccc4c3)cnn12 [Compound 2.13, ((1R,3s,5S)-3-(7-amino-3-(1H-pyrrolo[2,3-b]pyridin-5-yl)pyrazolo[1,5-a]pyrimidin-5-yl)-8-azabicyclo[3.2.1]octan-8-yl)(1H-1,2,4-triazol-5-yl)methanone] | 1000 to 10000 nM | 1000 to 10000 nM | – | – |
| Nc1cc([C@@H]2C[C@H]3CC[C@@H](C2)N3C(=O)c2nnc[nH]2)nc2c(-c3ccc(-c4ccccc4F)nc3)cnn12 [Compound 2.16, ((1R,3s,5S)-3-(7-amino-3-(6-(2-fluorophenyl)pyridin-3-yl)pyrazolo[1,5-a]pyrimidin-5-yl)-8-azabicyclo[3.2.1]octan-8-yl)(4H-1,2,4-triazol-3-yl)methanone] | 100 to 1000 nM | 100 to 1000 nM | – | – |
| Nc1cc([C@@H]2C[C@H]3CC[C@@H](C2)N3C(=O)c2nnc[nH]2)nc2c(-c3ccc(-c4ccc(C(F)(F)F)cc4F)nc3)cnn12 [Compound 2.17, ((1R,3s,5S)-3-(7-amino-3-(6-(2-fluoro-4-(trifluoromethyl)phenyl)pyridin-3-yl)pyrazolo[1,5-a]pyrimidin-5-yl)-8-azabicyclo[3.2.1]octan-8-yl)(4H-1,2,4-triazol-3-yl)methanone] | 1000 to 10000 nM | 1000 to 10000 nM | – | – |
| Nc1cc([C@@H]2C[C@H]3CC[C@@H](C2)N3C(=O)[C@H]2CCCN2)nc2c(-c3ccc(-c4ccccc4)nc3)cnn12 [Compound 2.19, ((1R,3S,5S)-3-(7-amino-3-(6-phenylpyridin-3-yl)pyrazolo[1,5-a]pyrimidin-5-yl)-8-azabicyclo[3.2.1]octan-8-yl)((R)-pyrrolidin-2-yl)methanone] | 100 to 1000 nM | 1000 to 10000 nM | – | – |
| Nc1cc([C@@H]2C[C@H]3CC[C@@H](C2)N3C(=O)[C@@H]2CCCN2)nc2c(-c3ccc(-c4ccccc4)nc3)cnn12 [Compound 2.20] | 1000 to 10000 nM | 1000 to 10000 nM | – | – |
| Nc1cc([C@@H]2C[C@H]3CC[C@@H](C2)N3)nc2c(-c3ccc(-c4ccccc4)nc3)cnn12 [Compound 2.23, 5-((1R,3s,5S)-8-azabicyclo[3.2.1]octan-3-yl)-3-(6-phenylpyridin-3-yl)pyrazolo[1,5-a]pyrimidin-7-amine] | 1000 to 10000 nM | 1000 to 10000 nM | – | – |
| CS(=O)(=O)c1c([C@@H]2C[C@H]3CC[C@@H](C2)N3C(=O)CO)nc2c(-c3ccc(-c4ccccc4)nc3)cnn2c1N [Compound 3.1, 1-((1R,3s,5S)-3-(7-amino-6-(methylsulfonyl)-3-(6-phenylpyridin-3-yl)pyrazolo[1,5-a]pyrimidin-5-yl)-8-azabicyclo[3.2.1]octan-8-yl)-2-hydroxyethanone] | – | – | 1 to 100 nM | 100 to 1000 nM |
| CS(=O)(=O)c1c([C@@H]2C[C@H]3CC[C@@H](C2)N3C(=O)c2nc[nH]n2)nc2c(-c3ccc(-c4ccccc4)nc3)cnn2c1N [Compound 3.2, ((1R,3s,5S)-3-(7-amino-6-(methylsulfonyl)-3-(6-phenylpyridin-3-yl)pyrazolo[1,5-a]pyrimidin-5-yl)-8-azabicyclo[3.2.1]octan-8-yl)(1H-1,2,4-triazol-3-yl)methanone] | – | – | 1 to 100 nM | 1 to 100 nM |
| CS(=O)(=O)c1c([C@@H]2C[C@H]3CC[C@@H](C2)N3C(=O)c2cnn[nH]2)nc2c(-c3ccc(-c4ccccc4)nc3)cnn2c1N [Compound 3.3, ((1R,3s,5S)-3-(7-amino-6-(methylsulfonyl)-3-(6-phenylpyridin-3-yl)pyrazolo[1,5-a]pyrimidin-5-yl)-8-azabicyclo[3.2.1]octan-8-yl)(1H-1,2,3,-triazol-5-yl)methanone] | – | – | 1 to 100 nM | 100 to 1000 nM |
| Cc1n[nH]c(C(=O)N2[C@@H]3CC[C@H]2C[C@H](c2nc4c(-c5ccc(-c6ccccc6)nc5)cnn4c(N)c2S(C)(=O)=O)C3)n1 [Compound 3.4, ((1R,3s,5S)-3-(7-amino-6-(methylsulfonyl)-3-(6-phenylpyridin-3-yl)pyrazolo[1,5-a]pyrimidin-5-yl)-8-azabicyclo[3.2.1]octan-8-yl)(3-methyl-1H-1,2,4-triazol-5-yl)methanone] | – | – | 1 to 100 nM | 1 to 100 nM |
| CS(=O)(=O)c1c([C@@H]2C[C@H]3CC[C@@H](C2)N3C(=O)c2nnn[nH]2)nc2c(-c3ccc(-c4ccccc4)nc3)cnn2c1N [Compound 3.5, ((1R,3s,5S)-3-(7-amino-6-(methylsulfonyl)-3-(6-phenylpyridin-3-yl)pyrazolo[1,5-a]pyrimidin-5-yl)-8-azabicyclo[3.2.1]octan-8-yl)(1H-tetrazol-5-yl)methanone] | – | – | 1000 to 10000 nM | > 10000 nM |
| CS(=O)(=O)c1c(C2CC3CCC(C2)N3C(=O)c2nnc[nH]2)nc2c(-c3ccc(-c4ccccc4)[n+]([O-])c3)cnn2c1N [Compound 3.6, 5-(5-((1R,3s,5S)-8-(1H-1,2,4-triazole-3-carbonyl)-8-azabicyclo[3.2.1]octan-3-yl)-7-amino-6-(methylsulfonyl)pyrazolo[1,5-a]pyrimidin-3-yl)-2-phenylpyridine 1-oxide] | – | – | 100 to 1000 nM | 100 to 1000 nM |
| CS(=O)(=O)c1c([C@@H]2C[C@H]3CC[C@@H](C2)N3C(=O)[C@H](O)CO)nc2c(-c3ccc(-c4ccccc4)nc3)cnn2c1N [Compound 3.7, (R)-1-((1R,3S,5S)-3-(7-amino-6-(methylsulfonyl)-3-(6-phenylpyridin-3-yl)pyrazolo[1,5-a]pyrimidin-5-yl)-8-azabicyclo[3.2.1]octan-8-yl)-2,3-dihydroxypropan-1-one] | – | – | 100 to 1000 nM | 1000 to 10000 nM |
| CCNC(=O)N1[C@@H]2CC[C@H]1C[C@H](c1nc3c(-c4ccc(-c5ccccc5)nc4)cnn3c(N)c1S(C)(=O)=O)C2 [Compound 3.8, (1R,3s,5S)-3-(7-amino-6-(methylsulfonyl)-3-(6-phenylpyridin-3-yl)pyrazolo[1,5-a]pyrimidin-5-yl)-N-ethyl-8-azabicyclo[3.2.1]octane-8-carboxamide] | – | – | 100 to 1000 nM | 100 to 1000 nM |
| CS(=O)(=O)c1c([C@@H]2C[C@H]3CC[C@@H](C2)N3C(N)=O)nc2c(-c3ccc(-c4ccccc4)nc3)cnn2c1N [Compound 3.10, (1R,3s,5S)-3-(7-amino-6-(methylsulfonyl)-3-(6-phenylpyridin-3-yl)pyrazolo[1,5-a]pyrimidin-5-yl)-8-azabicyclo[3.2.1]octane-8-carboxamide] | – | – | 1 to 100 nM | 1 to 100 nM |
| CS(=O)(=O)c1c([C@@H]2C[C@H]3CC[C@@H](C2)N3C(=O)NC2CC2)nc2c(-c3ccc(-c4ccccc4)nc3)cnn2c1N [Compound 3.11, (1R,3s,5S)-3-(7-amino-6-(methylsulfonyl)-3-(6-phenylpyridin-3-yl)pyrazolo[1,5-a]pyrimidin-5-yl)-N-cyclopropyl-8-azabicyclo[3.2.1]octane-8-carboxamide] | – | – | 100 to 1000 nM | 1000 to 10000 nM |
